The results in this text go back to publication PMC9904497 (2023).

Assay [1] deals with PQS-2302-WT (RNA, G4) GGGGAGGAGG
The assay is described as follows: fluorescence enhancement. The settings on record: 150 mM KCl; 10 mM Tris-HCl pH 7.5; 2 µM RNA, 2 µM dye; higher than in LiCl.

Assay [2] concerns PQS-1234-WT (RNA, G4) GGGUUAGCCAGGGCCGAGGGGGGCUGGG
Briefly: fluorescence enhancement. Conditions: 150 mM KCl; 10 mM Tris-HCl pH 7.5; 2 µM RNA, 2 µM dye; higher than in LiCl.

The subject of assay [3] is PQS-1682-WT (RNA, G4) GGAGGUGGAUGG
The assay is described as follows: fluorescence enhancement. The settings on record: 150 mM KCl; 10 mM Tris-HCl pH 7.5; 2 µM RNA, 2 µM dye.

The subject of assay [4] is PQS-1276-WT (RNA, G4) GGGCCUCGGGGAACGGGGGCCGGG
The assay is described as follows: fluorescence enhancement. Conditions: 150 mM KCl; 10 mM Tris-HCl pH 7.5; 2 µM RNA, 2 µM dye; higher than in LiCl.

Assay [5] concerns PQS-91-WT (RNA, G4) GGGGGGAGGGCCGGG
The assay is described as follows: fluorescence enhancement. The settings on record: 150 mM KCl, 10 mM Tris-HCl pH 7.5, 2 µM RNA, 2 µM dye.

The subject of assay [6] is PQS-675-WT-CY5 (RNA, G4) GGGCGGGCGGCCUGCAGGGACAUGGG
The assay is described as follows: microscale thermophoresis (MST). The settings on record: 150 mM KCl; 10 mM Tris-HCl pH 7.5 folding buffer; BBM stock 80 µM mixed 1:1. In general terms: In MST a laser heats a spot of the sample, and binding alters the fluorescence response.

Assay [7] has as its system PQS-2302-WT-CY5 (RNA, G4) GGGGAGGAGG
The assay is described as follows: microscale thermophoresis (MST). The settings on record: 150 mM KCl; 10 mM Tris-HCl pH 7.5 folding buffer; BBM stock 80 µM mixed 1:1.

Assay [8] relates to TERRA-WT-CY5 (RNA, G4) UUAGGGUUAGGGUUAGGGUUAGGG
The assay is described as follows: microscale thermophoresis (MST). The settings on record: 150 mM KCl; 10 mM Tris-HCl pH 7.5 folding buffer; BBM stock 80 µM mixed 1:1.

SMILES strings stand for the structures.

For the molecule `CCc1c(C)c2cc3nc(cc4nc(cc5c(CC)c(C)c(cc1[nH]2)n5C)C(C)=C4CCC(=O)O)C(CCC(=O)O)=C3C`, the binding entry in assay [1] is “yes”; in assay [2], “yes”; in assay [3], “weak”; in assay [4], “yes”; in assay [5] (only slightly higher than in LiCl), “weak”.

One may read the KD as the concentration at which binding is half-saturated. Read a high KD as weaker binding. As to `COc1cc2c3cc1Oc1c(OC)c(OC)cc4c1[C@@H](Cc1ccc(O)c(c1)Oc1ccc(cc1)C[C@@H]3N(C)CC2)N(C)CC4`, the results for the KD in assay [6], in assay [7] and in assay [8] were 10.78 nM, 264.76 nM and 11.55 µM, respectively.

For the molecule `Cc1ccc2c(c1)sc(-c1ccc(N(C)C)cc1)[n+]2C`, the binding result in assay [1] is reported as “yes”; in assay [2] it was “yes”; in assay [3] it was “weak”; in assay [4], “yes”; in assay [5] (higher than in LiCl), “yes”.
